Results taken from patent US20160039767A1, “PYRAZOLE DERIVATIVES AS PRMT1 INHIBITORS AND USES THEREOF” (EPIZYME, INC., priority 2013, published 2016).
Where two headings read alike, the source gives them in different places.

Assays:
[1] = molecular target: T1, PRMT1 (Homo sapiens, UniProt Q99873); assay: PRMT1 Biochemical Assay (3H-SAM Flashplate, histone H4 peptide substrate); conditions: Biochemical IC50 (Numerical, μM) PRMT1, single experiment or average of multiple experiments, Table 2a
T1 construct: GST-tagged PRMT1; made in house; host or cells: High Five insect cells (baculovirus, pFastBacI)
Description: S-adenosylmethionine (SAM), S-adenosylhomocysteine (SAH), bicine, Tween20, dimethylsulfoxide (DMSO), bovine skin gelatin (BSG), and Tris(2-carboxyethyl)phosphine hydrochloride solution (TCEP) were purchased from Sigma-Aldrich at the highest level of purity possible. ^3H-SAM was purchase from American Radiolabeled Chemicals with a specific activity of 80 Ci/mmol. 384-well streptavidin Flashplates were purchased from PerkinElmer.
Recombinant baculovirus were generated according to Bac-to-Bac kit instructions (Life Technologies). Protein over-expression was accomplished by infecting exponentially growing High Five insect cell culture at 1.5×10^6 cell/ml with 1:100 ratio of virus. Infections were carried out at 27° C. for 48 hours, harvested by centrifugation, and stored at −80° C. for purification.
GST-tagged PRMT1 was eluted with 50 mM Tris, 2 mM glutathione, pH 7.8, dialysed in buffer A and concentrated to 1 mg/mL.
General Procedure for PRMT1 Enzyme Assays on Peptide Substrates.
The assays were all performed in a buffer consisting of 20 mM Bicine (pH=7.6), 1 mM TCEP, 0.005% BSG, and 0.002% Tween 20, prepared on the day of use. […] DMSO (1 ul) was added to Columns 11, 12, 23, 24, rows A-H for the maximum signal control and 1 ul of SAH, a known product and inhibitor of PRMT1, was added to columns 11, 12, 23, 24, rows I-P for the minimum signal control. A cocktail (40 ul) containing the PRMT1 enzyme was added by Multidrop Combi (Thermo-Fisher). The compounds were allowed to incubate with PRMT1 for 30 min at room temperature, then a cocktail (10 ul) containing SAM and peptide was added to initiate the reaction (final volume=51 ul). […] The assays were stopped by the addition of non-radiolabeled SAM (10 ul) to a final concentration of 300 uM, which dilutes the ^3H-SAM to a level where its incorporation into the peptide substrate is no longer detectable. […] The plates were then read in a PerkinElmer TopCount plate reader to measure the quantity of ^3H-labeled peptide bound to the Flashplate surface, measured as disintegrations per minute (dpm) or alternatively, referred to as counts per minute (cpm).
Where dpm=disintegrations per minute, cmpd=signal in assay well, and min and max are the respective minimum and maximum signal controls.
Where top and bottom are the normally allowed to float, but may be fixed at 100 or 0 respectively in a 3-parameter fit. The Hill Coefficient normally allowed to float but may also be fixed at 1 in a 3-parameter fit. Y is the % inhibition and X is the compound concentration.

[2] = tested on: RKO cells; assay: RKO Methylation Assay (In Cell Western for mono-methyl arginine and DNA content); assay type: cell-based; conditions: Homo sapiens
Description: RKO adherent cells were purchased from ATCC (American Type Culture Collection), Manassas, Va., USA. DMEM/Glutamax medium, penicillin-streptomycin, heat inactivated fetal bovine serum, 0.05% trypsin and D-PBS were purchased from Life Technologies, Grand Island, N.Y., USA. Odyssey blocking buffer, 800CW goat anti-rabbit IgG (H+L) antibody, and Licor Odyssey infrared scanner were purchased from Licor Biosciences, Lincoln, Nebr., USA. Mono-methyl arginine antibody was purchased from Cell Signaling Technology, Danvers, Mass., USA. Methanol was purchased from VWR, Franklin, Mass., USA. 10% Tween 20 was purchased from KPL, Inc., Gaithersburg, Md., USA. DRAQ5 was purchased from Biostatus Limited, Leicestershire, UK.
RKO adherent cells were maintained in growth medium (DMEM/Glutamax medium supplemented with 10% v/v heat inactivated fetal bovine serum and 100 units/mL penicillin-streptomycin) and cultured at 37° C. under 5% CO2.
Cell Treatment, in Cell Western (ICW) for Detection of Mono-Methyl Arginine and DNA Content.
Compound (100 nL) from a 96-well source plate was added directly to 384 well cell plate. Plates were incubated at 37° C., 5% CO2 for 72 hours. After three days of incubation, plates were brought to room temperature outside of the incubator for ten minutes and blotted on paper towels to remove cell media. 50 μL of ice cold 100% methanol was added directly to each well and incubated for 30 min at room temperature. After 30 min, plates were transferred to a Biotek EL406 plate washer and washed 2 times with 100 μL per well of wash buffer (1×PBS). Next 60 μL per well of Odyssey blocking buffer (Odyssey Buffer with 0.1% Tween 20 (v/v)) were added to each plate and incubated 1 hour at room temperature. Blocking buffer was removed and 20 μL per well of primary antibody was added (mono-methyl arginine diluted 1:200 in Odyssey buffer with 0.1% Tween 20 (v/v)) and plates were incubated overnight (16 hours) at 4° C. Plates were washed 5 times with 100 µL per well of wash buffer. Next 20 μL per well of secondary antibody was added (1:200 800CW goat anti-rabbit IgG (H+L) antibody, 1:1000 DRAQ5 (Biostatus limited) in Odyssey buffer with 0.1% Tween 20 (v/v)) and incubated for 1 hour at room temperature. The plates were washed 5 times with 100 μL per well wash buffer then 2 times with 100 μL per well of water. Plates were allowed to dry at room temperature then imaged on the Licor Odyssey machine which measures integrated intensity at 700 nm and 800 nm wavelengths. Both 700 and 800 channels were scanned.
First, the ratio for each well was determined by:
Each plate included fourteen control wells of DMSO only treatment (minimum activation) as well as fourteen control wells for maximum activation treated with 20 μM of a reference compound. The average of the ratio values for each control type was calculated and used to determine the percent activation for each test well in the plate. Reference compound was serially diluted three-fold in DMSO for a total of nine test concentrations, beginning at 20 μM. Percent activation was determined and EC30 curves were generated using triplicate wells per concentration of compound.

[3] = RKO cells, 72 hours, mono-methyl arginine, class symbols, Table 3, read-out: In Cell Western data EC30
[4] = RKO cells, 72 hours, mono-methyl arginine, single experiment or average of multiple experiments, Table 3a, read-out: In Cell Western data (Numerical, μM) EC30
[5] = RKO, 72 h, read-out: In Cell Western data (Numerical, μM) EC30
[6] = RKO, 72 h, read-out: In Cell Western data EC30

T1 sequence (Q99873 with tags, fused parts or gaps): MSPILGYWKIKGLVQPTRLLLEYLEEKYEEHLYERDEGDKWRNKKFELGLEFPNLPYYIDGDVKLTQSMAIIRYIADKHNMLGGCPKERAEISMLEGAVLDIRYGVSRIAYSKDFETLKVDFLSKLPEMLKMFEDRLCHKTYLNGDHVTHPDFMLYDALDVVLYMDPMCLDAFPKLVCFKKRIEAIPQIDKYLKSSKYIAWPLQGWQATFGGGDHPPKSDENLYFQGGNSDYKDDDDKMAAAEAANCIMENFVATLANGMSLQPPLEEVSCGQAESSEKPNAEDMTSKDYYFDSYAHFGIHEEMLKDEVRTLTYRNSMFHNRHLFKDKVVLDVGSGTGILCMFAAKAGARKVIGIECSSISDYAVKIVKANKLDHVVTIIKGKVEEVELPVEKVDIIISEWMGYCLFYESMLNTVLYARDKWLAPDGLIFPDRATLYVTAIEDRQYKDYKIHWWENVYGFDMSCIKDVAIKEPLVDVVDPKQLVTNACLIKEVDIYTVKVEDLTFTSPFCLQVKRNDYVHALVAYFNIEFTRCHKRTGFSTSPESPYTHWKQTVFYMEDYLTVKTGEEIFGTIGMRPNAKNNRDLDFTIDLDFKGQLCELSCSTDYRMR

Row | Compound | IC50 [1] [µM] | other results
1 | CNCCN(C)Cc1c[nH]nc1-c1cc(OCCC(C)C)c(Cl)c(C(F)(F)F)c1 [Compound 54] | 0.146 | –
2 | CNCCN(C)Cc1n[nH]cc1-c1cc(OCCC(C)C)cc(C(F)(F)F)c1 [Compound 22] | 0.0189 | –
3 | CCCOc1cc(-c2c[nH]nc2CN(C)CCNC)cc(C(F)(F)F)c1 [Compound 31] | 0.17 | –
4 | CN(CCN)Cc1c[nH]nc1-c1ccc(Cl)c(C(F)(F)F)c1 [Compound 3] | 0.0232 | –
5 | CCCOc1cc(-c2n[nH]cc2CN(C)CCNC)cc(C(F)(F)F)c1 [Compound 19] | 0.0275 | EC30 [2, 3]: 3.01 to 12 µM; EC30 [2, 4]: 5.07 µM
6 | CNCCN(C)Cc1c[nH]nc1-c1cccc(C(F)(F)F)c1 [Compound 1] | 0.123 | –
7 | CC(C)Oc1ccc(-c2n[nH]cc2CN(C)CCN)cc1C(F)(F)F [Compound 5] | 0.00445 | EC30 [2, 5]: 0.305 µM; EC30 [2, 6]: < 3 µM
8 | CC(C)CCOc1cc(-c2n[nH]cc2CN(C)CCN)cc(C(F)(F)F)c1Cl [Compound 40] | 0.152 | –
9 | CNCCN(C)Cc1c[nH]nc1-c1ccc(CC(C)C)c(C(F)(F)F)c1 [Compound 34] | 0.00444 | EC30 [2, 5]: 0.955 µM; EC30 [2, 6]: < 3 µM
10 | CC(C)CCc1cc(-c2n[nH]cc2CN(C)CCN)cc(C(F)(F)F)c1 [Compound 63] | 0.0114 | –
11 | CNCCN(C)Cc1c[nH]nc1-c1cc(OC2CCCCC2)cc(C(F)(F)F)c1 [Compound 39] | 0.0259 | –
12 | CNCCN(C)Cc1c[nH]nc1-c1cc(OCCOC)c(F)c(C(F)(F)F)c1 [Compound 64] | 0.104 | EC30 [2, 5]: 13.2 µM; EC30 [2, 6]: > 12 µM
13 | CCC(CC)Oc1cc(-c2n[nH]cc2CN(C)CCNC)cc(C(F)(F)F)c1 [Compound 47] | 0.0135 | EC30 [2, 3]: < 3 µM; EC30 [2, 4]: 2.67 µM
14 | CNCCN(C)Cc1c[nH]nc1-c1cc(Oc2cncnc2)cc(C(F)(F)F)c1 [Compound 53] | 0.299 | –
15 | CNCCN(C)Cc1c[nH]nc1-c1cc(OCC2CCC2)cc(C(F)(F)F)c1 [Compound 44] | 0.0132 | EC30 [2, 5]: 4.52 µM; EC30 [2, 6]: 3.01 to 12 µM
16 | CNCCN(C)Cc1n[nH]cc1-c1cc(OCCOC)cc(C(F)(F)F)c1 [Compound 30] | 0.109 | EC30 [2, 3]: 3.01 to 12 µM; EC30 [2, 4]: 13.1 µM
17 | CNCCN(C)Cc1c[nH]nc1-c1cc(OCCCC(=O)OC)cc(C(F)(F)F)c1 [Compound 61] | 0.0165 | –
18 | CNCCN(C)Cc1n[nH]cc1-c1ccc(OCCCOC)c(C(F)(F)F)c1 [Compound 20] | 0.0553 | EC30 [2, 3]: < 3 µM; EC30 [2, 4]: 2.04 µM
19 | CNCCN(C)Cc1c[nH]nc1-c1ccc(OCCOC)c(C(F)(F)F)c1 [Compound 14] | 0.00554 | EC30 [2, 5]: 0.383 µM; EC30 [2, 6]: < 3 µM
20 | CNCCN(C)Cc1c[nH]nc1-c1cc(C)c(OCC2CCOCC2)c(C(F)(F)F)c1 [Compound 65] | 0.0471 | EC30 [2, 5]: 1.45 µM; EC30 [2, 6]: < 3 µM

Row | Compound | IC50 [1] [µM] | other results
21 | CNCCN(C)Cc1c[nH]nc1-c1cc(OCC(F)(F)F)cc(C(F)(F)F)c1 [Compound 60] | 0.0576 | –
22 | CNCCN(C)Cc1c[nH]nc1-c1cc(OCCOC)c(Cl)c(C(F)(F)F)c1 [Compound 55] | 0.163 | –
23 | CNCCN(C)Cc1c[nH]nc1-c1cc(Cl)c(OC(C)C)c(C(F)(F)F)c1 [Compound 25] | 0.0101 | EC30 [2, 5]: 0.983 µM; EC30 [2, 6]: < 3 µM
24 | CC(C)Oc1cc(-c2n[nH]cc2CN(C)CCN)cc(C(F)(F)F)c1 [Compound 6] | 0.0687 | EC30 [2, 5]: 10.8 µM; EC30 [2, 6]: 3.01 to 12 µM
25 | CNCCN(C)Cc1c[nH]nc1-c1cc(OCC(C)C)cc(C(F)(F)F)c1 [Compound 15] | 0.0162 | –
26 | CN(CCN)Cc1n[nH]cc1-c1cc(C(F)(F)F)cc(C(F)(F)F)c1 [Compound 7] | 2.6 | –
27 | CNCCN(C)Cc1c[nH]nc1-c1cc(OCC2CCCC2)cc(C(F)(F)F)c1 [Compound 45] | 0.0103 | –
28 | CNCCN(C)Cc1n[nH]cc1-c1cc(OCCCOC)cc(C(F)(F)F)c1 [Compound 27] | 0.139 | –
29 | CNCCN(C)Cc1c[nH]nc1-c1cc(CCC(C)C)cc(C(F)(F)F)c1 [Compound 62] | 0.0136 | –
30 | CNCCN(C)Cc1n[nH]cc1-c1cc(Cl)c(OC(C)C)c(C(F)(F)F)c1 [Compound 33] | 0.0441 | –
31 | CN(CCN)Cc1n[nH]cc1-c1ccc(Oc2ccccc2)c(C(F)(F)F)c1 [Compound 26] | 0.00917 | –
32 | CNCCN(C)Cc1n[nH]cc1-c1cc(C(O)C(C)C)cc(C(F)(F)F)c1 (centres unmarked) [Compound 32] | > 1 | –
33 | CNCCN(C)Cc1c[nH]nc1-c1cc(OCCc2ccccc2)cc(C(F)(F)F)c1 [Compound 42] | – | EC30 [2, 5]: 2.7 µM; EC30 [2, 6]: < 3 µM
34 | CNCCN(C)Cc1c[nH]nc1-c1cc(OCCCOC)c(Cl)c(C(F)(F)F)c1 [Compound 57] | 0.0318 | –
35 | CN(CCN)Cc1c[nH]nc1-c1ccc(F)c(C(F)(F)F)c1 [Compound 4] | 0.0572 | –
36 | CN(CCN)Cc1c[nH]nc1-c1cc(C(F)(F)F)cc(C(F)(F)F)c1 [Compound 2] | 0.389 | –
37 | COCCOc1cc(-c2n[nH]cc2CN(C)CCN)cc(C(F)(F)F)c1Cl [Compound 56] | 0.194 | –
38 | CNCCN(C)Cc1n[nH]cc1-c1cc(OCC(C)C)cc(C(F)(F)F)c1 [Compound 29] | 0.0663 | –
39 | CNCCN(C)Cc1c[nH]nc1-c1ccc(OCCC(C)C)c(C(F)(F)F)c1 [Compound 9] | – | EC30 [2, 5]: 1.77 µM; EC30 [2, 6]: < 3 µM
